From US20260285835A1, “SOLID FORM OF PYRROLIDONE DERIVATIVE AS GLUCOKINASE ACTIVATOR” (priority 2023, published 2026)
Where two headings read alike, the source gives them in different places.

Columns and labels:
[1] = Dynamic vapour sorption (DVS) test; format: physicochemical; conditions: 25° C.
Protocol: A dynamic vapour sorption (DVS) test was conducted on crystal form A of the free state and crystal form B of the hydrochloride.
A certain amount of powder was taken and put into a sample pan, and hygroscopicity of the sample was evaluated with DVS according to the following instrument method: […]

[2] = Photostability (direct sunlight) of free state crystal form A; format: physicochemical
Text: The resulting sample was sampled at day 4 and day 15 for HPLC analysis.

[3] = High-temperature stability (60° C.) of free state crystal form A; format: physicochemical
Text: (§1) The resulting sample was sampled at day 6, day 14 and day 34 for HPLC analysis.

[4] = High-humidity stability (90% RH) of free state crystal form A; format: physicochemical
Text: as §1

[5] = Forced degradation stability test (heat, humidity and heat, light); format: physicochemical; conditions: light box 10 days
Protocol: About 10 mg of the sample powder was weighed and placed in a transparent vial, an amber vial, and a transparent vial sealed with aluminum foil, respectively. Those vials were placed in a light box for 10 days, with a total illumination of 1.2×10^6 Lux·hr and a near-UV energy not less than 200w·hr/m^2, for photostability evaluation.
The samples were taken at each time point for HPLC and XRPD analysis to evaluate the chemical and physical stability.

[6] = format: physicochemical; conditions: room temperature
[7] = test system: C57BL/6J mice; assay: Pharmacodynamic study: OGTT blood glucose and insulin level in C57BL/6J mice; format: in vivo; conditions: for Blood glucose level at 0 min (pre-glucose) vs vehicle control group: each administration group, 1 hour after administration, dose-response relationship
Protocol: There were 7 groups of mice, with 8 mice in each group. […] Oral glucose tolerance test (OGTT) was performed 1 hour after administration. The blood glucose level in mice was tested before administration (−60 min), before sugar administration (0 min), and at 15 min, 30 min, 60 min, and 120 min after sugar administration. In addition, 40 μl of blood was collected from the tail tip before sugar administration (0 min) and at 15 min after sugar administration to collect the plasma for an insulin level test.
All data was transferred into an Excel document. The blood glucose results were expressed in mg/dL and expressed as MEAN±SEM. Differences between multiple groups were analyzed using Dunnett's method in one-way analysis of variance (ANOVA) or two-way analysis of variance (ANOVA) with Graphpad Prism 8 software for comparison, and the differences were considered statistically significant when the P value was less than 0.05.

[8] = Stability test in simulated intestinal fluid (SIF); format: in vitro ADME; conditions: 37° C.
Protocol: 0.136 g of KH2PO4 and 0.2 g of pancreatin were dissolved in water to obtain a final volume of 20 mL. The pH of the test solution was about 6.80±0.05.
Then 200 μL of supernatant was pipetted and mixed completely again with 400 μL of cold acetonitrile containing 200 ng/mL tolbutamide (internal standard). • 7) All samples were centrifuged at 4000 rpm, 4° C. for 20 min. • 8) 60 μL of supernatant was pipetted and mixed completely with 180 μL of ultra-pure water, and the mixture was subjected to LC-MS/MS analysis.

[9] = format: in vivo; conditions: rats
Protocol: Each group was divided into 2 subgroups (intravenous bolus group (IV) and gavage group (PO)).
Whole blood samples (about 0.2 mL per time point) were collected at pre-dose (0), 0.083, 0.25, 0.5, 1, 2, 4, 8, 12, and 24 hours post-dose by jugular vein puncture. All the blood samples were immediately transferred into labeled pre-chilled commercial microcentrifuge tubes containing 4 μL of 0.5M K2-EDTA and 10 μL of cocktail stabilizer. Samples were placed on wet ice until centrifugation (within 30 min). Plasma samples were then prepared by centrifuging the blood samples at approximately 4° C., 3200×g for 10 minutes. Supernatant plasma was pipetted, then quickly frozen over dry ice, and then kept at −60° C. or lower temperature until LC-MS/MS analysis. The cocktail stabilizer was prepared according to the following Table 8:
The plasma concentrations were subjected to a non-compartmental pharmacokinetic analysis by using the WinNonlin™ software program (version 6.3).

[10] = Simulated metabolic test in human intestine S9; format: in vitro ADME
Protocol: 73.21 g of K2HPO4·3H2O (AR grade) and 10.78 g of KH2PO4 (AR grade) were dissolved in ultra-pure water to obtain a final volume of 4000 mL and a final concentration of 100 mM. The pH of the final test solution was adjusted to 7.40±0.10 with H3PO4/KOH.
An Apricot automation workstation was used to add 50 μL/well of HIS9 solution to the corresponding wells of all reaction plates (blank, T0, T5, T15, T30, T45, T60).
An Apricot automation workstation was used to add 48 μL/well of PB to the corresponding wells of every reaction plate (blank, T0, T5, T15, T30, T45, T60) to start the reaction.
The reaction plates were incubated at 37° C., and timer was started. An Apricot automation workstation was used to add 300 μL/well of stop solution (cold acetonitrile containing 200 ng/mL tolbutamide (internal standard)) to the corresponding wells of each reaction plate at the appropriate end time point to stop the reaction.
Each plate was sealed and shaken for 10 minutes. Each plate was centrifuged at 4000 rpm and 4° C. for 20 minutes. After centrifugation, 100 μL of supernatant was transferred from each reaction plate to the corresponding analysis plate, and mixed well with 300 μL of ultra-pure water.

[11] = test system: Caco-2 cells; assay: Caco-2 bi-directional permeability test; format: in vitro ADME
Protocol: (§2) Caco-2 cell culture: Caco-2 cells (purchased from American Type Culture Collection, ATCC) were inoculated on polyethylene film (PET) of a 96-well culture plate at a concentration of 1×10^5 cells/cm^2. The culture medium was replaced every 4 days until cell confluency to form cell monolayer on day 21 or 28.
(§3) Transport test: Transport buffer used in the test was Hanks' Balanced Salt Solution (HBSS) containing 10 mM 2-[4-(2-hydroxyethyl)-1-piperazinyl]ethanesulfonic acid (HEPES) with a pH of 7.40±0.05. […] The final concentration of DMSO in the incubation system was adjusted to <1%.

[12] = Caco-2 bi-directional permeability test; format: in vitro ADME; conditions: human; for metabolised at 2 h, 2 µM: Caco-2, pH 7.4, Compound A concentration 2.00 μM; for metabolised at 2 h, 10 µM: Caco-2, pH 7.4, Compound A concentration 10.0 μM; for metabolised at 2 h, 30 µM: Caco-2, pH 7.4, Compound A concentration 30.0 μM
Protocol: as §2, §3

[13] = Stability test in simulated gastric fluid (SGF); format: in vitro ADME; conditions: 37° C.
Protocol: 0.04 g of NaCl and 0.064 g of pepsin were dissolved in 0.14 mL of HCl, and water was added to bring the total volume to 20 mL. The pH of the test solution was about 1.20±0.05.
Then 200 μL of supernatant was pipetted and mixed completely again with 400 μL of cold acetonitrile containing 200 ng/mL tolbutamide (internal standard). 7) All samples were centrifuged at 4000 rpm, 4° C. for 20 min. • 8) 60 μL of supernatant was pipetted and mixed completely with 180 μL of ultra-pure water, and the mixture was subjected to LC-MS/MS analysis.

[14] = Compound A concentration 2.00 μM
[15] = Compound A concentration 10.0 μM, 120 min
[16] = Compound A concentration 30.0 μM, 120 min
[17] = read-out: Average conversion rate to parent drug HMS5552 (%) A→B
[18] = read-out: Average conversion rate to parent drug HMS5552 (%) B→A

SMILES: CC(C)C[C@@H](C(=O)Nc1ccn(C[C@@H](O)COC(=O)c2cccnc2)n1)N1CC(Oc2ccccc2Cl)=CC1=O [crystal form A of the free state, (R)-3-(3-((S)-2-(4-(2-chlorophenoxy)-2-oxo-2,5-dihydro-1H-pyrrol-1-yl)-4-methylpentanamido)-1H-pyrazol-1-yl)-2-hydroxypropyl nicotinate]
- Moisture-induced weight gain ([1]; relative humidity of 95%): less than 0.7%
- Moisture-induced weight gain ([1]; relative humidity of less than or equal to 90%): less than 0.5%
- Purity (Area %) ([2]; 0 hour): 98.17 Area %
- Photostability (HPLC), conclusion ([2]; direct sunlight): still stable after being placed under sunlight for 15 days
- Purity (Area %) ([2]; direct sunlight, Day 4): 99.07 Area %
- Purity (Area %) ([2]; direct sunlight, Day 15): 99.10 Area %
- Purity (Area %) ([3]; 0 h): 98.17 Area %
- High-temperature stability (HPLC), conclusion ([3]; 60° C. oven without cover): still stable after being placed at 60 °C for 14 days
- Purity (Area %) ([3]; 60° C., Day 6, without cover): 99.03 Area %
- Purity (Area %) ([3]; 60° C., Day 14, without cover): 99.11 Area %
- Purity (Area %) ([4]; 0 hour): 98.17 Area %
- High-humidity stability (HPLC), conclusion ([4]; 90% RH without cover): still stable after being placed under the condition of 90% relative humidity for 14 days
- Purity (Area %) ([4]; 90% RH, Day 6, without cover): 98.99 Area %
- Purity (Area %) ([4]; 90% RH, Day 14, without cover): 99.09 Area %
- Crystalline form after forced degradation (XRPD) ([5]; 50° C., 80° C., 40° C./75% RH (unsealed), 1 day, 2 weeks, 4 weeks): does not change
- Effect of light on stability ([5]; […]10^6 Lux·hr, near-UV not less than 200w·hr/m^2): no effect on the stability
- Solubility (mg/mL) ([6]; DMAc): S>40.0 mg/mL
- Solubility (mg/mL) ([6]; DMSO): S>42.0 mg/mL
- Solubility (mg/mL) ([6]; MeOH): S>42.0 mg/mL
- Solubility (mg/mL) ([6]; NMP): S>40.0 mg/mL
- Solubility (mg/mL) ([6]; n-Heptane): S<1.1 mg/mL

SMILES: CC(C)C[C@@H](C(=O)Nc1ccn(C[C@@H](O)CO)n1)N1CC(Oc2ccccc2Cl)=CC1=O [HMS5552, (S)-2-(4-(2-chlorophenoxy)-2-oxo-2,5-dihydro-1H-pyrrol-1-yl)-N-(1-((R)-2,3-dihydroxypropyl)-1H-pyrazol-3-yl)-4-methylpentanamide, reference compound]
- OGTT blood glucose values vs vehicle control group ([7]; oral 40 mg/kg, at 30 min, 60 min and 120 min after glucose): significantly lower than that of the vehicle control group
- Blood glucose level at 0 min (pre-glucose) vs vehicle control group ([7]; oral): generally lower than that of the vehicle control group
- Insulin levels at 0 min and 15 min vs vehicle control group ([7]; oral, each dose group): slightly higher than those in the vehicle control group, without significant difference

SMILES: CC(C)C[C@@H](C(=O)Nc1ccn(C[C@@H](O)COC(=O)c2cccnc2)n1)N1CC(Oc2ccccc2Cl)=CC1=O [Compound A, (R)-3-(3-((S)-2-(4-(2-chlorophenoxy)-2-oxo-2,5-dihydro-1H-pyrrol-1-yl)-4-methylpentanamido)-1H-pyrazol-1-yl)-2-hydroxypropyl nicotinate]
- Parent drug HMS5552 (%) ([8]; generation in SIF, 2 μM, 0 hr): 0.86%
- metabolised at 1 h, 2 µM ([8]; simulated intestinal fluid, pH 6.8, generation in SIF, 1 hr, read-out: Parent drug HMS5552 (%)): 35.6%
- metabolised at 2 h, 2 µM ([8]; simulated intestinal fluid, pH 6.8, generation in SIF, 2 hr, read-out: Parent drug HMS5552 (%)): 46.6%
- metabolised at 6 h, 2 µM ([8]; simulated intestinal fluid, pH 6.8, generation in SIF, 6 hr, read-out: Parent drug HMS5552 (%)): 72.8%
- metabolised at 24 h, 2 µM ([8]; simulated intestinal fluid, pH 6.8, generation in SIF, 24 hr, read-out: Parent drug HMS5552 (%)): 73.4%
- Metabolism after intravenous injection (in words) [9]: metabolized very rapidly
- Insulin level at 15 min vs corresponding dose group of HMS5552 ([7]; oral 18.4 mg/kg): significantly higher than that of the corresponding dose group of HMS5552
- Insulin level at 15 min vs vehicle control group ([7]; oral 18.4 mg/kg): significantly higher than that of the vehicle control group
- Insulin level at 15 min vs vehicle control group ([7]; oral 49.1 mg/kg): significantly higher than that of the vehicle control group
- OGTT blood glucose values vs vehicle control group ([7]; oral 49.1 mg/kg, at 15 min, 30 min, 60 min and 120 min after glucose): significantly lower than that of the vehicle control group
- OGTT blood glucose values vs HMS5552-40 mg/kg group ([7]; oral 49.1 mg/kg, at 30 min, 60 min and 120 min after glucose): significantly lower than that of the HMS5552-40 mg/kg group
- Blood glucose level at 0 min (pre-glucose) vs vehicle control group ([7]; oral): generally lower than that of the vehicle control group
- Insulin level at 0 min vs vehicle control group and HMS5552 high-dose group ([7]; oral, high-dose group): significantly higher than that of the vehicle control group and the HMS5552 high-dose group
- OGTT AUC0-120min vs corresponding dose groups of HMS5552 ([7]; oral, medium and high dose groups): significantly lower than those of the corresponding dose groups of HMS5552
- Parent drug HMS5552 (%) ([10]; HIS9 0.5 mg/mL, 37° C., 0 min): 1.1%
- Time to complete metabolism and conversion into parent drug HMS5552 ([10]; human intestine S9): ≤ 5 min
- metabolised at 5 min ([10]; human, s9, pH 7.4, HIS9 0.5 mg/mL, 37° C., 5 min, read-out: Parent drug HMS5552 (%)): 80%
- metabolised at 0.25 h ([10]; human, s9, pH 7.4, HIS9 0.5 mg/mL, 37° C., 15 min, read-out: Parent drug HMS5552 (%)): 77.2%
- metabolised at 0.5 h ([10]; human, s9, pH 7.4, HIS9 0.5 mg/mL, 37° C., 30 min, read-out: Parent drug HMS5552 (%)): 79.8%
- metabolised at 0.75 h ([10]; human, s9, pH 7.4, HIS9 0.5 mg/mL, 37° C., 45 min, read-out: Parent drug HMS5552 (%)): 81.2%
- metabolised at 1 h ([10]; human, s9, pH 7.4, HIS9 0.5 mg/mL, 37° C., 60 min, read-out: Parent drug HMS5552 (%)): 90.5%
- Average recovery rate (%) A→B [11, 14]: 52.9%
- Average recovery rate (%) B→A [11, 14]: 87.1%
- The average apparent permeability Papp A→B [11, 14]: 0.02977 10^−6 cm/s
- Average recovery rate (%) A→B [11, 15]: 37.5%
- Average recovery rate (%) B→A [11, 15]: 81.6%
- The average apparent permeability Papp A→B [11, 15]: 0.03187 10^−6 cm/s
- Average recovery rate (%) B→A [11, 16]: 82.2%
- The average apparent permeability Papp A→B [11, 16]: 0.04322 10^−6 cm/s
- metabolised at 2 h, 2 µM [12, 17]: 26.5%
- metabolised at 2 h, 2 µM [12, 18]: 5.8%
- metabolised at 2 h, 10 µM [12, 17]: 37.4%
- metabolised at 2 h, 10 µM [12, 18]: 5.6%
- metabolised at 2 h, 30 µM [12, 17]: 26.8%
- metabolised at 2 h, 30 µM [12, 18]: 3.4%
- Parent drug HMS5552 (%) ([13]; generation in SGF, 2 μM, 0 hr): 0.92%
- metabolised at 1 h, 2 µM ([13]; simulated gastric fluid, pH 1.2, generation in SGF, 1 hr, read-out: Parent drug HMS5552 (%)): 0.86%
- metabolised at 2 h, 2 µM ([13]; simulated gastric fluid, pH 1.2, generation in SGF, 2 hr, read-out: Parent drug HMS5552 (%)): 0.87%
- metabolised at 6 h, 2 µM ([13]; simulated gastric fluid, pH 1.2, generation in SGF, 6 hr, read-out: Parent drug HMS5552 (%)): 1.02%
- metabolised at 24 h, 2 µM ([13]; simulated gastric fluid, pH 1.2, generation in SGF, 24 hr, read-out: Parent drug HMS5552 (%)): 1.63%
